Assays:
SMARCA4 = SMARCA4 (Homo sapiens, UniProt P51532); assay: HiBit assay in engineered HT1080 CRISPR knock-in cell, 6 hrs (B series), SMARCA4; assay type: cell-based; details: 6 hrs incubation; for DC50: HT1080 CRISPR knock-in cells, read-out: SMARC A4 HT1080 HiBit DC50; for Dmax: HT-1080, HT1080 CRISPR knock-in cells, read-out: SMARC A4 HT1080 HiBit Dmax(%)
Method in brief: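 HT1080 CRISPR knock-in cells carrying the HiBiT tag were seeded onto compounds (final DMSO 0.1%) and incubated 6 hrs at 37° C, 5% CO2. Remaining tagged protein was detected by lytic HiBiT luminescence after adding LgBiT protein and substrate, with LgBiT-free wells serving as negative control.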

SMARCA2 = SMARCA2 (Homo sapiens, UniProt P51531); assay: HiBit assay in engineered HT1080 CRISPR knock-in cell, 6 hrs (B series), SMARCA2; assay type: cell-based; details: 6 hrs incubation; for DC50: HT1080 CRISPR knock-in cells, read-out: SMARC A2 HT1080 HiBit DC50; for Dmax: HT-1080, HT1080 CRISPR knock-in cells, read-out: SMARC A2 HT1080 HiBit Dmax (%)
Method in brief: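 Protein abundance is measured in HiBiT-tagged HT1080 CRISPR knock-in cells after a 6 hr compound treatment (0.1% DMSO) by lytic Nano-Glo HiBiT luminescence.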

SMARCA4, sequence (P51532 whole entry): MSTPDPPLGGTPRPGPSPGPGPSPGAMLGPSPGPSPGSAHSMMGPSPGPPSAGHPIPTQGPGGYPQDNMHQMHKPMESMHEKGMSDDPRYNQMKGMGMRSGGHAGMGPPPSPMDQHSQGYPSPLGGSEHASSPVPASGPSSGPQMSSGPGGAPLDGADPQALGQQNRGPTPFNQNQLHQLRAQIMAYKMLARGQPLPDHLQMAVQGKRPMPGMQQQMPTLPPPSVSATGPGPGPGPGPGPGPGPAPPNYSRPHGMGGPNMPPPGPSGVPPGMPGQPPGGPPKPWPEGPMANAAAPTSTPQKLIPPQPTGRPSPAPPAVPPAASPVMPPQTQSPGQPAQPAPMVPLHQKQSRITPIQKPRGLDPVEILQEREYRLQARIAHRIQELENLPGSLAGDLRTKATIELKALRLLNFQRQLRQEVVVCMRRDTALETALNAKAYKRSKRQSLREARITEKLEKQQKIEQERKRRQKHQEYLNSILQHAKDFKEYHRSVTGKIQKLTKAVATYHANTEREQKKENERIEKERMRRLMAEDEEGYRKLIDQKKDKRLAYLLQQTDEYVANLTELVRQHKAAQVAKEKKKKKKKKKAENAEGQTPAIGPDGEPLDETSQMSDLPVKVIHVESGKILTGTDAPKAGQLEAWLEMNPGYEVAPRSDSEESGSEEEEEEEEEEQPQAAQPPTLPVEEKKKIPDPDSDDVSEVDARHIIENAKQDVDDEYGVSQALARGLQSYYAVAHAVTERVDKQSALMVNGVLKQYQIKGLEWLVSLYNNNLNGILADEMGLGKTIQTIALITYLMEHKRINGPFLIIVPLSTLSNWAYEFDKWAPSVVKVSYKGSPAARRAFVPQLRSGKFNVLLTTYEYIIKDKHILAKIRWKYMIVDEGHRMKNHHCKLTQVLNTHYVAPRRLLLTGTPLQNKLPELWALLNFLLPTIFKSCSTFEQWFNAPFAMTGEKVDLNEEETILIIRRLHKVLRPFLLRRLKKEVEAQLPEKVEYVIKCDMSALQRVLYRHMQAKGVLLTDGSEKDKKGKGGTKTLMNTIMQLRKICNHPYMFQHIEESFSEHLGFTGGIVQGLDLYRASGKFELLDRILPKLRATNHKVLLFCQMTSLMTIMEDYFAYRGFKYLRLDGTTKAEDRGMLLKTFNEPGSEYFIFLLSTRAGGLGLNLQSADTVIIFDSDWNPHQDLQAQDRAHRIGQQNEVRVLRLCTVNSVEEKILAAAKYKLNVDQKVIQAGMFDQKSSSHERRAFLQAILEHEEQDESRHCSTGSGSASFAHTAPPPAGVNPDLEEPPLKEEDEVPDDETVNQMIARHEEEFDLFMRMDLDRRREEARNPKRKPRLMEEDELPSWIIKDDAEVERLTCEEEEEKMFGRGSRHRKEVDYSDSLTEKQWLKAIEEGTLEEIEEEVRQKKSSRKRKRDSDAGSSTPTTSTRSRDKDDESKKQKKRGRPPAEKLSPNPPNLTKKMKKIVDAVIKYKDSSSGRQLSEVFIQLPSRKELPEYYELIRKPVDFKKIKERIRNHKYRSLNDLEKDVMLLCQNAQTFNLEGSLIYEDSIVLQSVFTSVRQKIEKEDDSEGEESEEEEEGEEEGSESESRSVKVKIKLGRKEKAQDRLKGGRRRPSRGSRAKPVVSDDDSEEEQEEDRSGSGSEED
SMARCA2, sequence (P51531 whole entry): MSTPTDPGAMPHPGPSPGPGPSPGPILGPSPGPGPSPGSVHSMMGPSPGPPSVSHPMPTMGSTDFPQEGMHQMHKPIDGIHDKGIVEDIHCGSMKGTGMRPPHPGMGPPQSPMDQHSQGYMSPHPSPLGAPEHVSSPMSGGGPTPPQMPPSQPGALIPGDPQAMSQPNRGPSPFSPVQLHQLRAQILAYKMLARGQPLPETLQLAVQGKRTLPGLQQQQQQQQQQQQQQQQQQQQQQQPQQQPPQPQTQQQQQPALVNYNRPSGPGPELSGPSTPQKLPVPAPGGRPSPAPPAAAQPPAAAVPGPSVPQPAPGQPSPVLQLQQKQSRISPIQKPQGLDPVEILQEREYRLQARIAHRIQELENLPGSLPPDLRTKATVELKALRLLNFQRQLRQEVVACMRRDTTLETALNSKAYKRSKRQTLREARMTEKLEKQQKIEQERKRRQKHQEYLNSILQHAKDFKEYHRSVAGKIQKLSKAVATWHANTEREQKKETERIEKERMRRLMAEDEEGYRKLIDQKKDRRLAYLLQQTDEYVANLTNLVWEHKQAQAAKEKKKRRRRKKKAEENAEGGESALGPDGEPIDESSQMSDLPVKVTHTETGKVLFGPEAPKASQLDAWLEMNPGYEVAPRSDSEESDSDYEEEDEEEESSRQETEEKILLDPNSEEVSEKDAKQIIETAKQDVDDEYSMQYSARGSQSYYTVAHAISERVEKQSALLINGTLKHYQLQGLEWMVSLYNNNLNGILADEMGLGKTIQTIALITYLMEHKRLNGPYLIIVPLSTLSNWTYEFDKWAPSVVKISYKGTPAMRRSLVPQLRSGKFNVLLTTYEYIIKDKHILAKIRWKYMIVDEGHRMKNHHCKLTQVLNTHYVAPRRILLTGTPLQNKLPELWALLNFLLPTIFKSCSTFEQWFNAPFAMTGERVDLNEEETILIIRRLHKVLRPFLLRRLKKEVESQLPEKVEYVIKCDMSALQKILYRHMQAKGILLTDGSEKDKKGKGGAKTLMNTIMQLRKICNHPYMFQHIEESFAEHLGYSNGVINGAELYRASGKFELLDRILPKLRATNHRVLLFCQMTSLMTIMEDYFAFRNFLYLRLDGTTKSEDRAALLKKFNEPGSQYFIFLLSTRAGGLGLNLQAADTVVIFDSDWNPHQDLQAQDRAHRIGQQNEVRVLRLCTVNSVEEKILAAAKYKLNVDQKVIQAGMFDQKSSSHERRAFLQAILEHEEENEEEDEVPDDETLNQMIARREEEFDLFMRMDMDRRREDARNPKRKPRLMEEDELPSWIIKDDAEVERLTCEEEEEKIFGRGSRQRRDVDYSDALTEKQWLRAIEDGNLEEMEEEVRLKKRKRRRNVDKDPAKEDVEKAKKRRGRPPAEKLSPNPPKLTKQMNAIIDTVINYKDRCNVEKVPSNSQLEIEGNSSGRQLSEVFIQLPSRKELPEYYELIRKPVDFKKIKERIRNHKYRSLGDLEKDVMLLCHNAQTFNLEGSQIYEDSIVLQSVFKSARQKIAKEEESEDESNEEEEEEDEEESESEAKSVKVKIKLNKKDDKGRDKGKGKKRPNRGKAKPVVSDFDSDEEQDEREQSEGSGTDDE

DC50 (SMARCA4) [nM]	Dmax (SMARCA4) [%]	DC50 (SMARCA2) [nM]	Dmax (SMARCA2) [%]	Compound
100 to 500	< 50	< 100	70 to 90	Cc1ncsc1-c1ccc2c(c1)CC[C@@H]2NC(=O)[C@@H]1C[C@@H](O)CN1C(=O)[C@@H](n1cc([C@H]2CC[C@H](CN3CCC(c4ccc5c(c4)-n4c(nc(=O)c6c(Cl)cccc64)C5(C)C)CC3)CC2)nn1)C(C)(C)C [Compound B123, (2S,4R)-1-((S)-2-(4-((1r,4S)-4-((4-(4-chloro-7,7-dimethyl-5-oxo-5,7-dihydroindolo[1,2-a]quinazolin-10-yl)piperidin-1-yl)methyl)cyclohexyl)-1H-1,2,3-triazol-1-yl)-3,3-dimethylbutanoyl)-4-hydroxy-N-((S)-5-(4-methylthiazol-5-yl)-2,3-dihydro-1H-inden-1-yl)pyrrolidine-2-carboxamide]
< 100	70 to 90	< 100	> 90	C[C@H](NC(=O)[C@@H]1C[C@@H](O)CN1C(=O)[C@@H](n1cc([C@H]2CC[C@H](CN3CCN(c4ccc5c(c4)-n4c(nc(=O)c6c(Cl)cccc64)C5(C)C)CC3)CC2)nn1)C(C)(C)C)c1ccc(-c2ccnn2C)cc1 [Compound B125, (2S,4R)-1-((S)-2-(4-((1r,4S)-4-((4-(4-chloro-7,7-dimethyl-5-oxo-5,7-dihydroindolo[1,2-a]quinazolin-10-yl)piperazin-1-yl)methyl)cyclohexyl)-1H-1,2,3-triazol-1-yl)-3,3-dimethylbutanoyl)-4-hydroxy-N-((S)-1-(4-(1-methyl-1H-pyrazol-5-yl)phenyl)ethyl)pyrrolidine-2-carboxamide]
< 100	70 to 90	< 100	> 90	Cc1ncsc1-c1ccc([C@H](CN2CCOCC2)NC(=O)[C@@H]2C[C@@H](O)CN2C(=O)[C@H](C(C)C)n2cc([C@H]3CC[C@H](CN4CCN(c5ccc6c(c5)-n5c(nc(=O)c7c(Cl)cccc75)C6(C)C)CC4)CC3)nn2)cc1 [Compound B129, (2S,4R)-1-((S)-2-(4-((1r,4S)-4-((4-(4-chloro-7,7-dimethyl-5-oxo-5,7-dihydroindolo[1,2-a]quinazolin-10-yl)piperazin-1-yl)methyl)cyclohexyl)-1H-1,2,3-triazol-1-yl)-3-methylbutanoyl)-4-hydroxy-N-((R)-1-(4-(4-methylthiazol-5-yl)phenyl)-2-morpholinoethyl)pyrrolidine-2-carboxamide]
100 to 500	50 to 69	< 100	> 90	Cc1ncsc1-c1ccc([C@H](C)NC(=O)[C@@H]2C[C@@H](O)CN2C(=O)[C@@H](c2cc(OCC#Cc3cccc4c3C(C)(C)c3nc(=O)c5c(Cl)cccc5n3-4)no2)C(C)C)cc1 [Compound B130, (2S,4R)-1-((R)-2-(3-((3-(4-chloro-7,7-dimethyl-5-oxo-5,7-dihydroindolo[1,2-a]quinazolin-8-yl)prop-2-yn-1-yl)oxy)isoxazol-5-yl)-3-methylbutanoyl)-4-hydroxy-N-((S)-1-(4-(4-methylthiazol-5-yl)phenyl)ethyl)pyrrolidine-2-carboxamide]

Further lines, the compound ahead of its results:

Compound	DC50 (SMARCA4) [nM]	Dmax (SMARCA4) [%]	DC50 (SMARCA2) [nM]	Dmax (SMARCA2) [%]
Cc1ncsc1-c1ccc2c(c1)CC[C@H]2NC(=O)[C@@H]1C[C@@H](O)CN1C(=O)[C@@H](n1cc([C@H]2CC[C@H](CN3CCC(c4ccc5c(c4)-n4c(nc(=O)c6c(Cl)cccc64)C5(C)C)CC3)CC2)nn1)C(C)(C)C [Compound B122, (2S,4R)-1-((S)-2-(4-((1r,4S)-4-((4-(4-chloro-7,7-dimethyl-5-oxo-5,7-dihydroindolo[1,2-a]quinazolin-10-yl)piperidin-1-yl)methyl)cyclohexyl)-1H-1,2,3-triazol-1-yl)-3,3-dimethylbutanoyl)-4-hydroxy-N-((R)-5-(4-methylthiazol-5-yl)-2,3-dihydro-1H-inden-1-yl)pyrrolidine-2-carboxamide]	100 to 500	< 50	100 to 500	70 to 90
Cc1ncsc1-c1ccc(C2(NC(=O)[C@@H]3C[C@@H](O)CN3C(=O)[C@@H](n3cc([C@H]4CC[C@H](CN5CCC(c6ccc7c(c6)-n6c(nc(=O)c8c(Cl)cccc86)C7(C)C)CC5)CC4)nn3)C(C)(C)C)CN(C)C2)cc1 [Compound B124, (2S,4R)-1-((S)-2-(4-((1r,4S)-4-((4-(4-chloro-7,7-dimethyl-5-oxo-5,7-dihydroindolo[1,2-a]quinazolin-10-yl)piperidin-1-yl)methyl)cyclohexyl)-1H-1,2,3-triazol-1-yl)-3,3-dimethylbutanoyl)-4-hydroxy-N-(1-methyl-3-(4-(4-methylthiazol-5-yl)phenyl)azetidin-3-yl)pyrrolidine-2-carboxamide]	100 to 500	< 50	< 100	70 to 90
Cc1ncoc1-c1ccc([C@H](C)NC(=O)[C@@H]2C[C@@H](O)CN2C(=O)[C@@H](n2cc([C@H]3CC[C@H](CN4CCN(c5ccc6c(c5)-n5c(nc(=O)c7c(Cl)cccc75)C6(C)C)CC4)CC3)nn2)C(C)(C)C)cc1 [Compound B126, (2S,4R)-1-((S)-2-(4-((1r,4S)-4-((4-(4-chloro-7,7-dimethyl-5-oxo-5,7-dihydroindolo[1,2-a]quinazolin-10-yl)piperazin-1-yl)methyl)cyclohexyl)-1H-1,2,3-triazol-1-yl)-3,3-dimethylbutanoyl)-4-hydroxy-N-((S)-1-(4-(4-methyloxazol-5-yl)phenyl)ethyl)pyrrolidine-2-carboxamide]	< 100	50 to 69	< 100	> 90
C[C@H](NC(=O)[C@@H]1C[C@@H](O)CN1C(=O)[C@@H](n1cc([C@H]2CC[C@H](CN3CCN(c4ccc5c(c4)-n4c(nc(=O)c6c(Cl)cccc64)C5(C)C)CC3)CC2)nn1)C(C)(C)C)c1ccc(-c2ccn[nH]2)cc1 [Compound B127, (2S,4R)-N-((S)-1-(4-(1H-pyrazol-5-yl)phenyl)ethyl)-1-((S)-2-(4-((1r,4S)-4-((4-(4-chloro-7,7-dimethyl-5-oxo-5,7-dihydroindolo[1,2-a]quinazolin-10-yl)piperazin-1-yl)methyl)cyclohexyl)-1H-1,2,3-triazol-1-yl)-3,3-dimethylbutanoyl)-4-hydroxypyrrolidine-2-carboxamide]	< 100	70 to 90	< 100	> 90
C#Cc1ccc([C@H](C)NC(=O)[C@@H]2C[C@@H](O)CN2C(=O)[C@H](C(C)C)n2cc([C@H]3CC[C@H](CN4CCC(c5ccc6c(c5)-n5c(nc(=O)c7c(Cl)cccc75)C6(C)C)CC4)CC3)nn2)cc1 [Compound B128, (2S,4R)-1-((S)-2-(4-((1r,4S)-4-((4-(4-chloro-7,7-dimethyl-5-oxo-5,7-dihydroindolo[1,2-a]quinazolin-10-yl)piperidin-1-yl)methyl)cyclohexyl)-1H-1,2,3-triazol-1-yl)-3-methylbutanoyl)-N-((S)-1-(4-ethynylphenyl)ethyl)-4-hydroxypyrrolidine-2-carboxamide]	< 100	70 to 90	< 100	> 90

— patent US20260092071A1, “COMPOUNDS AND COMPOSITIONS AS SMARCA2/4 DEGRADERS AND USES THEREOF” (REGENTS OF THE UNIVERSITY OF MICHIGAN, priority 2022, published 2026)
